Laboratory results from US9475750B2, “Phenylketone carboxylate compounds and pharmaceutical uses thereof” (PROMETIC BIOSCIENCES INC., priority 2010, dated 2016).
“Also recorded” adds a separate entry of the source.

Tests used:
[1] = tested on: LPS-stimulated RAW264.7 (macrophage-like) cells; test: IL-12 production on LPS-stimulated RAW264.7 cells (ELISA); assay type: cell-based; conditions: in the presence of LPS
Experimental: The effect of selected compounds on IL-12 production was undertaken in RAW264.7 (macrophage-like) cells. RAW264.7 cells were cultured with 100 ng/mL of LPS in presence or absence of compounds for 21 h in a humidified atmosphere of 95% air-5% carbon dioxide at 37° C. IL-12 concentration in the culture medium was measured using the IL-12 ELISA according to the manufacturer (BD Biosciences) recommendations.

[2] = tested on: Normal Human Dermal Fibroblasts (NHDF); test: TGF-β induced CTGF production on normal human dermal fibroblasts (ELISA); assay type: cell-based; conditions: 10 ng/mL TGF-β, 48 h
Experimental: The effect of selected compounds on CTGF production was undertaken in NHDF. Cells were cultured in DMEM (0.5% FBS) with or without 10 ng/mL of TGF-β for 48 h in a humidified atmosphere of 95% air-5% carbon dioxide at 37° C. CTGF production in the culture medium was measured using the CTGF ELISA according to the manufacturer (Prepotech) recommendations. Table 3 represents the effect of selected representative compounds on the inhibition of TGF-βCTGF production in normal human dermal fibroblast (NHDF).

[3] = tested on: doxorubicin-induced nephrotoxicity mouse model; test: Renal protection in doxorubicin-induced nephrotoxicity model; assay type: in vivo, C57BL/6 mice; conditions: for serum albumin: oral prophylactic treatment day -3 to 10, doxorubicin 10 mg/kg iv day 0, day 11 (FIG. 2)
Experimental: C57BL/6 mice (6 to 10 week old) were treated with compounds prophylacticly from day −3 to day 10. Nephrotoxicity was induced by an intravenous injection of 10 mg/kg of doxorubicin at day 0. Serum albumin was monitored at day 11.

[4] = tested on: cyclophosphamide immunosuppressed mice; test: Chemoprotection in cyclophosphamide immunosuppressed mice; assay type: in vivo, C57BL/6 mice; conditions: 50 mg/kg oral day -3, -2, -1, cyclophosphamide 250 mg/kg iv day 0; for red bone marrow cell count: day +5 (FIG. 6); for white bone marrow cell count: day +5 (FIG. 7)
Experimental: Female C57BL/6 mice, 6 to 8 week old, were immunosuppressed by treatment with 250 mg/kg of cyclophosphamide administered intravenously at day 0. To examine the immunoprotective effect of Compound I and Compound II, mice were pre-treated orally at day −3, −2 and −1 with 50 mg/kg of each compound. Mice were sacrificed at day +5 by cardiac puncture and cervical dislocation. Then, a gross pathological observation of the femurs (as a source of bone marrow cells) was recorded. After the sacrifice, tissues were crushed in PBS buffer and cells were counted on a hemacytometer.

[5] = tested on: 5/6-nephrectomized (NX) rats; test: 5/6-nephrectomy model of kidney fibrosis; assay type: in vivo, Wistar rats
Experimental: Male 6-week old Wistar rats were subjected to […] (5/6-NX) or sham operations. Under ketamine anesthesia (60 to 100 mg/kg, i.p.), two-thirds of the left kidney was removed on day 0 followed by the right total nephrectomy on day 7. Sham operated rats underwent exposition of the kidneys and removal of the perirenal fat. Animals that underwent the sham operation were given vehicle (saline) and were used as controls. 5/6-NX animals were treated by gastric gavage with the vehicle or Compound I administered daily at 10 and 50 mg/kg, respectively. Animals were treated from day 1 to 132 and were sacrificed at day 133. To evaluate renal function, creatinine clearance was measured at day 21 and every subsequent three weeks. Glomerular filtration rate (GFR) was then calculated. Serum urea, serum creatinine and kidney CTGF along with histological lesion score were also evaluated.

UUO rats = test: Unilateral Ureteral Obstruction (UUO) rat model; assay type: in vivo, Sprague-Dawley rats
Experimental: The effect of treatment with Compound I was studied on the Unilateral Ureteral Obstruction (UUO) model, a model of kidney interstitial fibrosis. Sprague-Dawley rats were used at 6-8 weeks of age and 200-250 g in body weight. Rats were sedated by general anesthesia (isoflurane), then an incision was made in the left side of the back, and the left proximal ureter was exposed and triple-ligated. Sham-operated rats had their ureter exposed but not ligated. Rats were treated by oral gavage from day 1 to 13. Rats were sacrificed on day 14.

[6] = tested on: human proximal tubule epithelial cells (HK-2); test: TGF-β induced epithelial to mesenchymal transition (EMT), real-time PCR; assay type: cell-based
Experimental: Further analysis was undertaken to determine the effect of Compound I on EMT. The effect of Compound I on TGF-β induced EMT was analyzed on human proximal tubule epithelial cells (HK-2). To assess the progression of EMT, the pro-epithelial marker E-cadherin and the mesenchymal/pro-fibrotic markers CTGF and collagen 1 were assayed by quantitative real-time PCR. To examine the prospective efficacy of Compound I in inhibiting TGF-β-induced EMT, we first verified the ability of TGF-β to induce EMT in HK-2 cells.

[7] = oral treatment, mRNA, dose-response
[8] = Compound alone, normal HK-2 cells

In the case of `CCCCCCCCC(Oc1ccc(C(=O)CCCCCCC)cc1)C(=O)[O-].[Na+]` (racemic) [Compound I, Sodium (RS)-2-[4-Octanoylphenoxy]decanoate], the “IL-12 production under inflammatory conditions” value [1] is reported as “increases IL-12 production in vitro (RAW.264 cells) only when inflammation is present”, the inhibition at 7.5 µM ([2]; 7.5 μM) is reported as 41% and the “histological micrographs of doxorubicin-induced lesions” value ([3]; FIG. 4) is reported as “protects the kidney against doxorubicin toxicity”. For the same compound, the serum albumin [3] was “inhibits the decrease of serum albumin”, the “serum CTGF” value ([3]; oral treatment, p<0.01 (FIG. 5)) was “significant inhibition of CTGF production in serum” and the “histological kidney lesions score” value ([3]; prophylactic treatment, day 11, glomerular and tubular level (FIG. 3)) was “reduces the kidney lesions at the glomerular and tubular level”. For the same compound, the “red bone marrow cell count” value [4] was “significant increase in red bone marrow cell count”, the “white bone marrow cell count” value [4] was “increase in white bone marrow cell count” and the “urinary excretion of MCP-1” value ([5]; 10 mg/kg, day 21 to 105 (FIG. 13)) was “markedly reduced; also recorded: significantly decreased (from day 84)”. For the same compound, the proteinuria ([5]; 10 mg/kg, day 63 and day 84 (FIG. 10)) was “reduction of proteinuria; also recorded: reduces proteinuria”, the serum urea ([5]; 10 and 50 mg/kg oral, day 1 to day 132 (FIG. 11)) was “decreased serum urea” and the “GFR expressed as percent of improvement” value ([5]; 10 and 50 mg/kg oral, day 84 and day 105 (FIG. 9)) was “improvement of GFR at day 84 and day 105”. The “GFR expressed as percent of improvement (renal functions)” value ([5]; 10 and 50 mg/kg oral, day 126 (FIG. 9)) was “deteriorated but to a lesser extent than that observed in the non-treated animals”, the serum creatinine ([5]; 10 and 50 mg/kg, day 126 (FIG. 12)) was “decreased serum creatinine” and the “interstitial and glomerular fibrosis/sclerosis (histology)” value ([5]; 10 or 50 mg/kg (FIG. 15)) was “reduction of interstitial and glomerular fibrosis/sclerosis”. The “CTGF expression in the remnant kidney (real-time PCR)” value ([5]; oral 10 mg/kg) was “decreases significantly”, the “TGF-β expression in the remnant kidney (real-time PCR)” value ([5]; oral 10 mg/kg) was “decreases significantly” and the “collagen 1 expression in the remnant kidney (real-time PCR)” value ([5]; oral 10 mg/kg) was “decreases significantly”. For the same compound, the “α-SMA expression in the remnant kidney (real-time PCR)” value ([5]; oral 10 mg/kg) was “decreases significantly”, the “kidney CTGF expression (Northern blot)” value ([5]; oral 10 mg/kg (FIG. 16)) was “reduction of connective tissue growth factor (CTGF) expression” and the “need for Ringer's lactate solution over the period of treatment” value ([5]; oral 50 mg/kg) was “did not require Ringer's lactate solution”. The survival rate ([5]; oral 10 and 50 mg/kg (FIG. 17)) was “increases the survival rate”, the “kidney IL-12p40 level” value ([5]; oral 10 or 50 mg/kg, relative to untreated 5/6-NX group (FIG. 14)) was “significant (p=0.04 at 10 mg/kg) increase in IL-12p40” and the GFR ([5]; oral, day 126, p=0.08 (FIG. 8)) was “improvement of GFR”. For the same compound, the “kidney MCP-1” value (UUO rats; 50 mg/kg (FIG. 19)) was “significantly reduced”, the serum albumin (UUO rats; oral 10 and 50 mg/kg, day 1 to 13 (FIG. 18)) was “prevented” and the “TGF-β expression in the kidney” value (UUO rats; oral treatment, mRNA) was “reduced TGF-β expression”. The “expression of CTGF in the kidney” value (UUO rats; [7]) was “significant dose-response inhibition”, the “expression of collagen 1 in the kidney” value (UUO rats; [7]) was “significant dose-response inhibition” and the “basal expression of CTGF” value [6, 8] was “downregulate basal expression”. The “basal expression of collagen 1” value [6, 8] was “downregulate basal expression”, the E-cadherin transcript expression ([6]; TGF-β induced EMT cells (FIG. 20)) was “upregulation of E-cadherin” and the CTGF transcript expression ([6]; TGF-β induced EMT cells (FIG. 21)) was “downregulation”. For the same compound, the “collagen 1 transcript expression” value ([6]; TGF-β induced EMT cells (FIG. 22)) was “downregulation”.
`CCCCCCCC(=O)c1ccc2c(c1)CC(C(=O)O)C2` (racemic) [Compound III, Sodium (RS)-5-Octanoylindane-2-carboxylate] showed an inhibition at 62.5 µM ([2]; 62.5 μM) of 45%.
With `CCCCCCCCC(Oc1ccc(C(=O)CCC)cc1)C(=O)[O-].[Na+]` (racemic) [Compound IX, Sodium (RS)-2-[4-Butyrylphenoxy]decanoate] the melting point was 262 to 278 °C.
`CCCCCCCC(=O)c1ccc(OC(CCCCCC)C(=O)[O-])cc1.[Na+]` (racemic) [Compound VIII, Sodium (RS)-2-[4-Octanoylphenoxy]octanoate] showed a melting point of 165 to 170 °C.
For `CCCCCCCCC(Oc1ccc(C(=O)CCCCC)cc1)C(=O)[O-].[Na+]` (racemic) [Compound X, Sodium (RS)-2-[4-Hexanoylphenoxy]decanoate], the melting point was 275 to 280 °C.
`CCCCCCCC(=O)c1cccc2c1CC(C(=O)O)C2` (racemic) [Compound XXVI, Sodium (RS)-4-Octanoylindane-2-carboxylate] gave an inhibition at 100 µM ([2]; 100 μM) of 59%.
For `CCCCCCCC(=O)c1cccc(C(=O)[O-])c1.[Na+]` [Compound II, Sodium 3-Octanoylbenzoate], the serum albumin [3] was “inhibits the decrease of serum albumin”, the “red bone marrow cell count” value [4] was “significant increase in red bone marrow cell count” and the “white bone marrow cell count” value [4] was “increase in white bone marrow cell count”.
